Experimental findings from US9493453B2, “Piperazinyl pyrimidine derivatives, preparation method and use thereof” (INSTITUTE OF PHARMACOLOGY AND TOXICOLOGY ACADEMY OF …, priority 2012, dated 2016) are described below.

The structures appear in SMILES notation. Where two headings read alike, the source gives them in different places.

For one assay, the target named is T1, CCR4 receptor (Homo sapiens, UniProt P51679).
T1 construct: cDNA fragments of receptor open reading frame were respectively inserted into pcDI; expressed in transfected cells; host or cells: HEK293 cells, transiently transfected by electroporation with pCDI-CCR4
T1 sequence (P51679 1-360): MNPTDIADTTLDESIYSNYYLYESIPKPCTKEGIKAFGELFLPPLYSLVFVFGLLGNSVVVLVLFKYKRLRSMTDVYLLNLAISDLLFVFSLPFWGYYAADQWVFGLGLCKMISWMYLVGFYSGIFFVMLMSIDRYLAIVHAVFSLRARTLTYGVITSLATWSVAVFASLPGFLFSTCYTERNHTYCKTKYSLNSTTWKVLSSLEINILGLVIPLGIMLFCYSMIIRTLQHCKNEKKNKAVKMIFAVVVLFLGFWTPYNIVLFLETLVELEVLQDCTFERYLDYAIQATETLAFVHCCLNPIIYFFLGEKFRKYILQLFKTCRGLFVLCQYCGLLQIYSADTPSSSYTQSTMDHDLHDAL
In words: Inhibition of MDC/TARC/C27 mediated chemotactic response of CCR4-transfected HEK293 cells (Boyden chamber). As to conditions: chemotactic inhibition rate, compound 1 μM, HEK293 cells transfected with pCDI-CCR4, 5 hours. It is filed as cell-based. An excerpt: Whether or not compounds 1-14 of the present invention can inhibit MDC (Peprotech) mediated chemotactic response of HEK293 cells was studied by using Boyden chamber (Neuro Probe, Inc.).
1. Construction of Receptor Expression Plasmid:
cDNA fragments including human chemokine receptor open reading frame were obtained by the following method: CCR4 receptor was cloned from a cDNA library of K562 cells through polymerase chain reaction (PCR). Primers were designed according to the sequence of Gen-Bank™ accession: CCR4 (NM_005508.2). cDNA fragments of receptor open reading frame were respectively inserted into pcDI (vector transformed in the chamber: eukaryotic expression vector obtained by replacing a BglII KpnI fragment of pcDNA3 (Invitrogen Corporation) plasmid with a BglII KpnI fragment of pCI (Promega Corporation) plasmid) expression vector so as to make them effectively express in HEK293 cells.
HEK293 cells were cultured in RPMI 1640 (Life Technologies, Inc.) containing 10% heat-inactivated fetal bovine serum, 100 U/mL penicillin, 100 μg/mL streptomycin. Each 4×10^6 HEK293 cells/400 μL were transiently transfected through electroporation with 15 μg chemokine receptor expression plasmids, under the condition of 120 V for 20 ms, the instrument used being electric pulse generator (Electro Square porator ECM 830, BTX, San Diego, Calif.). After 36-48 hr, chemotactic assay was carried out.
3. The Inhibitory Effect on MDC/TARC/C27 Mediated Chemotactic Response of HEK293 Cells
Chemokines MDC/TARC/C27 were diluted to 10 ng/mL with RPMI1640 (Life Technologies, Inc.), 0.1% BSA (Sigma), and added to lower holes in a 48-hole chemotactic chamber, 27.5 μL each hole. Eukaryotic expression plasmids pCDI-CCR4 were electrically shifted to HEK293 cells, and cultured normally for 36 hr. The cells were digested, re-suspended with RPMI1640, 10% FBS (Life Technologies, Inc.), and subjected to rotary incubation at 37° C. for 6.5 hours. The cells were washed twice with RPMI1640, and suspended in RPMI1640, 0.1% BSA, with a final concentration of 1×10^6/mL. The cells and the candidate compound dissolved in DMSO (Sigma) were subjected to rotary incubation at room temperature for half an hour, the final concentration of the candidate compound being 1 μM, and the final concentration of DMSO being 0.1%, and then added to upper holes in the chemotactic chamber, 55 μL each hole. The two layers were spaced by a polycarbon membrane with pore size of […] (Neuro Probe, Inc.). The chemotactic reaction was carried out in 5% CO2 at 37° C. for 5 hours. There were three groups of control in the experiment, wherein the first group was positive control, in which the transfected cells were directly added to upper holes without incubated with the candidate compound, while chemokines MDC/TARC/C27 were added to lower holes. The second group was negative control, in which the transfected cells were directly added to upper holes without incubated with the candidate compound, while RPMI1640, 0.1% BSA were added to lower holes. The third group was solvent DMSO control of the candidate compound, in which the transfected cells and DMSO were incubated at room temperature, the final concentration of DMSO being 0.1%, while chemokines MDC/TARC/C27 were added to lower holes. After completion of the chemotactic reaction, the membrane was removed, fixed and stained, and, at 400× high magnification, five horizons were randomly selected to count the cells, which were then summed. The ratio of the sum of the numbers of cells in five horizons at high magnification in each experimental group to the sum of the numbers of cells in five horizons at high magnification in the negative control group is obtained as Chemotactic Index (CI). Chemotactic inhibition rate was calculated as follows: […]

The subject of another assay is mice rhinitis model. Briefly: Mice rhinitis model experiment (OVA-sensitized BALB/c mice). It is filed as in vivo. The note with it: Example 8 compound 1 μg/Kg. How it is done:
Mice Rhinitis Model Experiment
Female BALB/c mice (6-8 weeks) were sensitized with chicken ovalbumin (OVA, Sigma-Aldrich, St Louis, Mo., USA). The compound of the present invention (for example, the compound of Example 8) was administered to nasal mucosa, at a dose 1 μg/Kg. Glucocorticoid hormonal drug budesonide, a first-line clinical drug, was used as positive control, at a dose 1.28 mg/Kg. Meanwhile, there were provided a normal group wherein the mice were not sensitized and not administered, and an OVA group wherein the mice were sensitized and not administered. The following five indicators were detected: the number of sneezing, the number of nasal scratching within 10 min after administration; IL-4 level in bronchoalveolar lavage fluid; serum IgE level; lung tissue inflammation score. Lung tissue inflammation score was rated according to a single blind method: inflammation was divided into four levels from mild to severe, marked as 0-3 scores: 0 representing no detected inflammation; 1 representing occasional inflammatory cells being visible; 2 representing bronchus or blood vessel being surrounded by eosinophils, but less than five cell layers; 3 representing bronchus or blood vessel being surrounded by a large number of eosinophils, with 5 or more cell layers.

[1] abbreviates: OVA-sensitized female BALB/c mice, nasal mucosa, budesonide 1.28 mg/Kg, within 10 min after administration.
Where [2] appears, read: versus OVA-sensitized group, budesonide 1.28 mg/Kg.

On to `O=C([C@H]1CCCCN1)N1CCN(c2nc(Cl)cc(NCc3ccc(Cl)cc3Cl)n2)CC1` [Compound 8, (R)-{4-{4-chloro-6-[(2,4-dichlorobenzyl)amino]pyrimidin-2-yl}piperazin-1-yl}(piperidin-2-yl)methanone], for which, at CCR4 receptor (chemokine C27 10 ng/mL, read-out: C27 inhibition rate), the inhibition at 1 µM came to 69.8%. The inhibition at 1 µM on CCR4 receptor (chemokine MDC 10 ng/mL, read-out: MDC inhibition rate) was determined as 79.2%. The inhibition at 1 µM on CCR4 receptor (chemokine TARC 10 ng/mL, read-out: TARC inhibition rate) came out at 60.4%. In addition, the IL-4 in the assay with mice rhinitis model (IL-4 level in bronchoalveolar lavage fluid, OVA-sensitized mice, budesonide 1.28 mg/Kg) is 3.7 ± 0.3 pg/mL. Moreover, in the assay with mice rhinitis model (setting [1]), the Nasal scratching is listed as 8.0 ± 0.6 times/10 mins and the Sneezing came to 29.0 ± 3.5 times/10 mins. In the assay with mice rhinitis model (lung tissue inflammation score 0-3, single blind, OVA-sensitized mice, budesonide 1.28 mg/Kg), the Inflammation score turned out to be 2.2 ± 0.4. Further, the IgE in the assay on mice rhinitis model (serum IgE level, OVA-sensitized mice, budesonide 1.28 mg/Kg) came to 2861 ± 49 ng/mL. Besides, in the assay on mice rhinitis model (versus OVA-sensitized and normal control groups, budesonide 1.28 mg/Kg), the “serum IgE level (result in words)” value was “higher than that of the normal control group”. For the same molecule, in the assay on mice rhinitis model (setting [2]), the “IL-4 level in bronchoalveolar lavage fluid (result in words)” value is reported as “significantly lower than that of the OVA-sensitized group”, the “lung tissue inflammation score (result in words)” value is reported as “lower than that of the OVA-sensitized group” and the “number of sneezing (result in words)” value is “could significantly reduce the number of sneezing”. The “number of nasal scratching (result in words)” value in the assay on mice rhinitis model (versus other groups) is “lower than that of any of other groups”.

As usually defined, the inhibition is the change of the read-out against control, counted positive when it falls.
